Each structure is given as a SMILES string.

The assay has as its target T1, human kinase Mps-1 (Homo sapiens, UniProt P33981).
T1 construct: N-terminally GST-tagged human full length recombinant Mps-1 kinase; purchased Invitrogen, Karslruhe, Germany PV4071
T1 sequence (P33981 1-857): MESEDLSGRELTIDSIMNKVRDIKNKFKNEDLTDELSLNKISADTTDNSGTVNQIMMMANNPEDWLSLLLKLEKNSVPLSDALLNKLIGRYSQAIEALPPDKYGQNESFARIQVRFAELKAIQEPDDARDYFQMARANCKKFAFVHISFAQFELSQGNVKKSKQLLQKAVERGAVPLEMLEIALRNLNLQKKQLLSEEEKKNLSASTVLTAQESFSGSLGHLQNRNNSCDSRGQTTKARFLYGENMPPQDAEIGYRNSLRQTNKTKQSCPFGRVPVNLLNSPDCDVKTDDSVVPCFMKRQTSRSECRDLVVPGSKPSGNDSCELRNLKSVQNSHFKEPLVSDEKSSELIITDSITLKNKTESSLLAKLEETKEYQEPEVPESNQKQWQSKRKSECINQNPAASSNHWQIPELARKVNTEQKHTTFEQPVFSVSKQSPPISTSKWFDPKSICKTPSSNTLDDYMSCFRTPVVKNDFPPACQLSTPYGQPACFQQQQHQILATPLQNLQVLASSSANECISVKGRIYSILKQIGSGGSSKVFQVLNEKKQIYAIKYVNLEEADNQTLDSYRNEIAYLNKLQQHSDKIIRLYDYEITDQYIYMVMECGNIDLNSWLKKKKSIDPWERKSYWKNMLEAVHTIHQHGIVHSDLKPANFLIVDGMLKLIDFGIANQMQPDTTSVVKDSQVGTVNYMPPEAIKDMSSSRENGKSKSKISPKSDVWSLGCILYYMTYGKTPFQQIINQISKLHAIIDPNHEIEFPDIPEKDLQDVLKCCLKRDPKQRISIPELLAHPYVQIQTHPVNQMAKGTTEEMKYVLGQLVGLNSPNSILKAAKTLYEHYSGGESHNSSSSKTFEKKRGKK
Description: Mps-1 kinase assay (HTRF). It counts as biochemical. The note with it: lowATP; mean; read-out: Mps1 lowATP mean IC50. The method in brief: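 HTRF readout: EDTA-stopped reactions incubated 1 h with europium anti-phospho(Ser/Thr) antibody and streptavidin-XLent, emission ratio 665/620 nm after 350 nm excitation. Kinase step: compound pre-bound 15 min to ~1 nM GST-Mps-1, then 60 min at 22 °C with ATP and biotin-peptide substrate; inhibition scaled between no-inhibitor (0%) and no-enzyme (100%) controls.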
(In general: Time-resolved FRET reads energy transfer from a long-lived donor to a nearby acceptor.)
Regarding `CC(C)CNc1nc2ccccc2n2c(-c3ccc(C(=O)NC4CC4F)cc3)cnc12` (stereo not drawn) [Example 3-21, N-(2-fluorocyclopropyl)-4-{4-[(2-methylpropyl)amino]imidazo[1,2-a]quinoxalin-1-yl}benzamide], the concentration for half-maximal inhibition (IC50) was found to be 7.75 nM.
On to `CC(C)CNc1nc2ccccc2n2c(-c3ccc(C(=O)NC4(C#N)CC4)cc3)cnc12` [Example 3-22, N-(1-cyanocyclopropyl)-4-{4-[(2-methylpropyl)amino]imidazo[1,2-a]quinoxalin-1-yl}benzamide], for which the 50% inhibitory concentration (IC50) turned out to be 214 nM.
In the case of `CC(C)CNc1nc2ccccc2n2c(-c3ccc(C(=O)Nc4ccn(C)n4)cc3)cnc12` [Example 3-23, 4-{4-[(2-methylpropyl)amino]imidazo[1,2-a]quinoxalin-1-yl}-N-(1-methyl-1H-pyrazol-3-yl)benzamide] it was 997 nM.
In the case of `CCn1nccc1C(=O)Nc1cccc(NC(=O)c2ccc(-c3cnc4c(NCC(C)C)nc5ccccc5n34)cc2)c1` [Example 3-24, 1-ethyl-N-{3-[(4-{4-[(2-methylpropyl)amino]imidazo[1,2-a]quinoxalin-1-yl}benzoyl)amino]phenyl}-1H-pyrazole-5-carboxamide] it was 3610 nM; in that of `CC(C)CNc1nc2ccccc2n2c(-c3ccc(C(=O)NC4(c5ccccn5)CC4)cc3)cnc12` [Example 3-25, 4-{4-[(2-methylpropyl)amino]imidazo[1,2-a]quinoxalin-1-yl}-N-[1-(pyridin-2-yl)cyclopropyl]benzamide], 1420 nM; in that of `CC(C)CNc1nc2ccccc2n2c(-c3ccc(C(=O)NCCS(N)(=O)=O)cc3)cnc12` [Example 3-26, 4-{4-[(2-methylpropyl)amino]imidazo[1,2-a]quinoxalin-1-yl}-N-(2-sulfamoylethyl)benzamide], 5860 nM.
In the case of `CC(C)CNc1nc2ccccc2n2c(-c3ccc(C(=O)Nc4cccc(NC(=O)c5ccncc5)c4)cc3)cnc12` [Example 3-27, N-{3-[(4-{4-[(2-methylpropyl)amino]imidazo[1,2-a]quinoxalin-1-yl}benzoyl)amino]phenyl}pyridine-4-carboxamide], the 50% inhibitory concentration (IC50) was 349 nM.
Regarding `CC(C)CNc1nc2ccccc2n2c(-c3ccc(C(=O)Nc4cccc(NC(=O)c5cccnc5)c4)cc3)cnc12` [Example 3-28, N-{3-[(4-{4-[(2-methylpropyl)amino]imidazo[1,2-a]quinoxalin-1-yl}benzoyl)amino]phenyl}pyridine-3-carboxamide], the half-maximal inhibitory concentration (IC50) came out at 361 nM.
`CC(C)CNc1nc2ccccc2n2c(-c3ccc(C(=O)NC4CC4C)cc3)cnc12` (stereo not drawn) [Example 3-29, N-(2-methylcyclopropyl)-4-{4-[(2-methylpropyl)amino]imidazo[1,2-a]quinoxalin-1-yl}benzamide]: the concentration for half-maximal inhibition (IC50) was determined as 13.8 nM.
For `CC(C)CNc1nc2ccccc2n2c(-c3ccc(C(=O)NC4(CO)CC4)cc3)cnc12` [Example 3-30, N-[1-(hydroxymethyl)cyclopropyl]-4-{4-[(2-methylpropyl)amino]imidazo[1,2-a]quinoxalin-1-yl}benzamide], the IC50 was determined as 275 nM.
In the case of `CC(C)CNc1nc2ccccc2n2c(-c3ccc(C(=O)Nc4ccc(CN5CCN(C)CC5)c(C(F)(F)F)c4)cc3)cnc12` [Example 3-31, N-{4-[(4-methylpiperazin-1-yl)methyl]-3-(trifluoromethyl)phenyl}-4-{4-[(2-methylpropyl)amino]imidazo[1,2-a]quinoxalin-1-yl}benzamide] it was 4570 nM; in that of `CC(C)CNc1nc2ccccc2n2c(-c3ccc(C(=O)NC4(C)CC4)cc3)cnc12` [Example 3-32, N-(1-methylcyclopropyl)-4-{4-[(2-methylpropyl)amino]imidazo[1,2-a]quinoxalin-1-yl}benzamide], 158 nM.

By IC50 is commonly meant the concentration that inhibits the measured activity by half.

The values above are taken from patent publication US8729082B2, “Substituted imidazoquinoxalines” (Bayer Intellectual Property GmbH, priority 2009, dated 2014).
